Results as given in patent publication US11584709B2, “Multitarget drug for treating diseases in mammals” (“PHARMENTERPRISES EURASIA” LIMITED LIABILITY COMPANY, priority 2017, dated 2023).

Legend:
[1] = target: T1, tachykinin receptor type 1 (NK1R) (Homo sapiens, UniProt P25103); assay: Activity of tachykinin receptor type 1 (NK1R), intracellular calcium, U373 cells; assay type: cell-based; settings: antagonist, [Sar9, Met(O2)11]-SP (1 nM)
T1 construct: endogenous in cells; host or cells: U373 cells
Description: Compound 1 dissolved in DMSO to a concentration of 100 mM; then a stock solution was serially diluted with DMSO. The maximum starting concentration of the substance is 100 μM. The effect was determined at 5 concentrations of the tested compounds, each concentration was studied twice. U373 cells expressing NK1R were used in the experiment, said cells, after the preincubation with an [Sar9, Met(O2)11]-SP (1 nM) […], were incubated with Compound 1. The activity of receptors was determined according to the intracellular calcium concentration by the fluorescence spectroscopy (Glia. 1992; 6(2):89-95).

[2] = target: T2, bradykinin receptors B1 (BRDKB1) (Homo sapiens, UniProt P46663); assay: Activity of bradykinin receptor BRDKB1, intracellular calcium, CHO cells; assay type: cell-based; settings: antagonist, LysdesArg9-BK agonist (3 nM)
T2 construct: expressed in transfected cells; host or cells: CHO cells
T2 sequence (P46663 1-353): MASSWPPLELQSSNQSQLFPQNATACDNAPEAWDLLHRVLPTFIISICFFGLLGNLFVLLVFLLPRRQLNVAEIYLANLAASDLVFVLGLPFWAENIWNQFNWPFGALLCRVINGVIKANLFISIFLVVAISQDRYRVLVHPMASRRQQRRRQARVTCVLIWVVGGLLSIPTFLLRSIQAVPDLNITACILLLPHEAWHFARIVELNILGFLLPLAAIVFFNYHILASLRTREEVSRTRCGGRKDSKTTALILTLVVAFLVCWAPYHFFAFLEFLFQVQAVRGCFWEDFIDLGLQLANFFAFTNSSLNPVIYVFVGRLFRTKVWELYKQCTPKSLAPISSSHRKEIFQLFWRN
Description: Compound 1 was dissolved in DMSO to a concentration of 100 mM; then a stock solution was serially diluted with DMSO. The maximum starting concentration of the substance is 100 μM. The effect was determined at 5 concentrations of the tested compounds, each concentration was studied twice. CHO cells expressing bradykinin receptors B1 were used in the experiment, these cells, after preincubation with a LysdesArg9-BK agonist (3 nM), were incubated with the test compound. The activity of receptors was determined according to the intracellular calcium concentration by fluorescence spectroscopy (Eur J Pharmacol. 2000 Mar. 24; 392(1-2):1-9).

[3] = target: T3, serotonin receptors 5-HT2B (Homo sapiens, UniProt P41595); assay: Activity of serotonin receptors 5-HT2B, CHO cells; assay type: cell-based; settings: antagonist, serotonin agonist (30 nM)
T3 construct: expressed in transfected cells; host or cells: CHO cells
Description: Compound 1 was dissolved in DMSO to a concentration of 100 mM; then a stock solution was serially diluted with DMSO. The maximum starting concentration of the substance is 100 μM. The effect was determined at 5 concentrations of the tested compounds, each concentration was studied twice. CHO cells expressing serotonin receptors 5-HT2B were used in the experiment, these cells, after preincubation with a serotonin agonist (30 nM), were incubated with the test compound. The activity of receptors was determined according to the intracellular calcium concentration of phosphatidylinositol by the homogeneous time resolved fluorescence spectroscopy (Br J Pharmacol. 1999 September; 128(1):13-20).

model of Crohn's disease = assay: Mouse model of Crohn's disease (TNBS); assay type: in vivo, male balb/c mice
Description: The study was performed on male balb/c mice. Animals, which starved for 24 hours, were injected with 150 μl/mouse of TNBS solution in 50% ethanol into the rectal hole of the mouse to the depth of 4 cm using a 3.5 F catheter. Next, the mice were turned upside down and held for 60 seconds. 150 μl of the 50% ethanol solution was injected into the healthy control (intact animals). The study lasted 7 days. The development of pathology was assessed by the death of animals.

[4] = system: motility of the gastrointestinal tract; assay: Model of irritable bowel syndrome: motility of the gastrointestinal tract (activated carbon); assay type: in vivo, nonlinear male mice
Description: The effect on the motility of the gastrointestinal tract was studied on a model of irritable bowel syndrome in nonlinear male mice weighing 24-30 g. The animals were intragastrically injected with a solution of activated carbon (50 mg/ml, in a volume of 10 ml/kg) and the speed (in minutes) of the movement of activated coal through the intestines of animals. The compounds under study were intragastrically administered once 1 hour before the introduction of activated carbon. Drotaverine (6.7 mg/kg), Buscopan (3 mg/kg) and Trimedat (33 mg/kg) were used as reference drugs.

[5] = Stability in blood plasma, human; assay type: in vitro ADME; settings: 1 μM, 37° C.
Description: (§1) Compound 1 at a concentration of 1 μM was incubated for 24 hours in the blood plasma of human and various animal species (rats, mice, guinea pigs, rabbits, horses, dogs, bull, pygmy hogs) at 37° C. Aliquots were taken at time points of 0, 0.25, 1, 2, 4, 8 and 24 hours. In the case of blood plasma of rabbits and monkeys, Compound 1 was incubated for 4 hours, and aliquots were taken at time points 0, 0.25, 1, 4. After the protein precipitation with acetonitrile, samples were analyzed by HPLC-MS/MS to determine the concentration of Compound 1. Verapamil was used as a stable control.

[6] = Stability in blood plasma, monkey; assay type: in vitro ADME; settings: 1 μM, 37° C.
Description: as §1

[7] = Stability in blood plasma, pygmy hog; assay type: in vitro ADME; settings: 1 μM, 37° C.
Description: as §1

[8] = Chronic (90-day) oral administration, body weight of rabbits; assay type: in vivo, Chinchilla rabbits; settings: for period in which the lag in body weight gain was observed: female rabbits, daily intragastric
Description: The effect of 90-day, oral administration of Compound 1 in doses of 1.5 mg/kg, 7.5 mg/kg and 15 mg/kg on the body weight of male and female Chinchilla rabbits was studied.

[9] = 90-day oral, 1.5, 7.5 and 15 mg/kg, male and female rabbits

T1 sequence (P25103 whole entry): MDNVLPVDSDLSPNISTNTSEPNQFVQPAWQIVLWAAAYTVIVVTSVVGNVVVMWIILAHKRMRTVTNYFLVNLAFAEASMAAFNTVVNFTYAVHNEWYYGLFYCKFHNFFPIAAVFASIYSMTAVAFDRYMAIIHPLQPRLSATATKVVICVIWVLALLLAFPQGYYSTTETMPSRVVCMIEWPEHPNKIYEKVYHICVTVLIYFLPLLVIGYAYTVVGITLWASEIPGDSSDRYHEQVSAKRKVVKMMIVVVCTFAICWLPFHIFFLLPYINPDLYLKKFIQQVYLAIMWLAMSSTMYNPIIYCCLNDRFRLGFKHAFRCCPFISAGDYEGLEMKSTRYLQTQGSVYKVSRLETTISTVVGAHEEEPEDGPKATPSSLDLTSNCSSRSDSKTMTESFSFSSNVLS
T3 sequence (P41595 whole entry): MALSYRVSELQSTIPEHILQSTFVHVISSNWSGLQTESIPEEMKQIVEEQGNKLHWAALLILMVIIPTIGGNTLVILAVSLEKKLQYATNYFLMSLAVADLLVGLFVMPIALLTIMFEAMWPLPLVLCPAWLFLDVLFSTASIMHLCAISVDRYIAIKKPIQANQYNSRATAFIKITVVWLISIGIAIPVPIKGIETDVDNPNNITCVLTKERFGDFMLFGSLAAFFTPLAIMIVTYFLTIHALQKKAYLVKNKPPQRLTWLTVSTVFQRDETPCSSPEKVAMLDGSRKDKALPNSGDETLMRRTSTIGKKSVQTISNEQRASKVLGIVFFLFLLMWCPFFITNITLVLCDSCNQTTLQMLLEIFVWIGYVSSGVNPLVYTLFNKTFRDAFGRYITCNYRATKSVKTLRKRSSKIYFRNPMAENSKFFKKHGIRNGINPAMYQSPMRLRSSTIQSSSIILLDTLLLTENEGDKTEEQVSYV

O=C(Cc1ccc(O)cc1)N[C@@H](Cc1ccccc1)C(=O)OCc1ccccc1 [Compound 1, benzyl (2S)-2-[2-(4-hydroxyphenyl)acetamido]-3-phenylpropanoate]
IC50 [1]: 4.1 µM
IC50 [2]: 3.7 µM
IC50 [3]: 8.9 µM
The portion of dead animals (model of Crohn's disease; 50 mg/kg, 1 time per day, TNBS, 7 days, 10 animals): 30%
decrease of the death of animals (model of Crohn's disease; summary of Table 4): more than 2 times
The evacuation speed of activated carbon ([4]; 0.5 mg/kg once intragastrically 1 hour before activated carbon): 89.45 ± 1.9 min
The evacuation speed of activated carbon ([4]; 1.5 mg/kg once intragastrically 1 hour before activated carbon): 104.25 ± 5.49 min
The evacuation speed of activated carbon ([4]; 5 mg/kg once intragastrically 1 hour before activated carbon): 107.67 ± 3.07 min
The evacuation speed of activated carbon ([4]; 10 mg/kg once intragastrically 1 hour before activated carbon): 126.6 ± 3.66 min
The evacuation speed of activated carbon ([4]; 15 mg/kg once intragastrically 1 hour before activated carbon): 123.13 ± 5.27 min
The evacuation speed of activated carbon ([4]; 50 mg/kg once intragastrically 1 hour before activated carbon): 129.13 ± 3.19 min
The evacuation speed of activated carbon ([4]; 150 mg/kg once intragastrically 1 hour before activated carbon): 135.63 ± 2.87 min
increase of the evacuation time of activated carbon ([4]; summary of table 7): 2 times
Content, % from the initial, Mean (n = 2) ([5]; 0 hour): 100%
Content, % from the initial, Mean (n = 2) ([5]; 0.25 hour): 85.4%
Content, % from the initial, Mean (n = 2) ([5]; 1 hour): 70.3%
Content, % from the initial, Mean (n = 2) ([5]; 2 hour): 50.1%
Content, % from the initial, Mean (n = 2) ([5]; 4 hour): 32.1%
Content, % from the initial, Mean (n = 2) ([5]; 8 hour): 16.4%
Content, % from the initial, Mean (n = 2) ([5]; 24 hour): 0.00%
Content, % from the initial, Mean (n = 2) ([6]; 0 hour): 100%
Content, % from the initial, Mean (n = 2) ([6]; 0.25 hour): 38.3%
Content, % from the initial, Mean (n = 2) ([6]; 1 hour): 1.69%
Content, % from the initial, Mean (n = 2) ([6]; 4 hour): 0.00%
Content, % from the initial, Mean (n = 2) ([7]; 0 hour): 100%
Content, % from the initial, Mean (n = 2) ([7]; 0.25 hour): 92.6%
Content, % from the initial, Mean (n = 2) ([7]; 1 hour): 61.8%
Content, % from the initial, Mean (n = 2) ([7]; 2 hour): 35.9%
Content, % from the initial, Mean (n = 2) ([7]; 4 hour (so in the source)): 2.68%
Content, % from the initial, Mean (n = 2) ([7]; time cell empty (last line)): 0.15%
Content, % from the initial, Mean (n = 2) ([7]; time cell empty (line after 2 hour)): 15.9%
general condition, appearance, and mobility [8, 9]: satisfactory and did not differ in the experimental and control groups
weight gain compared with parallel controls [8, 9]: somewhat lagging behind in weight gain
feed and water intake ([8]; accompanying the decrease in body weight gain): decrease in feed and water intake
period in which the lag in body weight gain was observed ([8]; 7.5 mg/kg): practically, during the entire period of the drug administration
period in which the lag in body weight gain was observed ([8]; 15 mg/kg): practically, during the entire period of the drug administration
dynamics of the body weight in the recovery period ([8]; recovery period, control versus experimental animals): no differences in the dynamics of the body weight
